Like-named read-outs stand apart in the source and are kept apart here. Numbered stars: 1 amine (or outer) side, 2 acyl side, 3 side chain; on linkers, the order of the positions; unused ones are H or OH. Square brackets hold non-standard residues; d marks the D form. Side chains are listed from the residue outwards. Peptide text beside a SMILES is read from it. * marks the point of attachment. C18 diacid = O=C(O)CCCCCCCCCCCCCCCCC(=O)*; γGlu = O=C(O)[C@H](CCC(=O)[*:2])N[*:1]; αMeF = C[C@](N)(Cc1ccccc1)C(=O)O; αMeK = C[C@](N)(CCCCN)C(=O)O; Lauroyl = CCCCCCCCCCCC(=O)*; αMeS = C[C@](N)(CO)C(=O)O; AEEA = NCCOCCOCC(=O)O; Aib = CC(C)(N)C(=O)O

The source of these data is patent publication US20210221866A1, “PROTEASE-RESISTANT LIPIDATED GLP-1 ANALOGS” (MEDIMMUNE LIMITED, priority 2015, published 2021).

Holding throughout (format): cell-based
Test [1] deals with T1, human GLP-1 receptor (GLP-1R) (Homo sapiens, UniProt P43220).
T1 construct: expressed in transfected cells; host or cells: HEK293 cells or CHO cells
Put plainly: cAMP assay, human GLP-1R cells. The gist of the method: (§1)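 Peptide-stimulated cAMP measured by two-step HTRF after a 30 min room-temperature incubation with receptor-expressing cells (hGLP-1R, hGIPR at 1×10^5 cells/ml; hGCGR at 2×10^5 cells/ml). Duplicate dilutions; EC50 from 4-parameter logistic fit of % Delta F.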

In test [2] the target is T2, GLP-1R (INS1e cells) (Rattus norvegicus, UniProt P32301).
T2 construct: endogenous in cells; host or cells: INS1e cells
T2 sequence (P32301 22-463): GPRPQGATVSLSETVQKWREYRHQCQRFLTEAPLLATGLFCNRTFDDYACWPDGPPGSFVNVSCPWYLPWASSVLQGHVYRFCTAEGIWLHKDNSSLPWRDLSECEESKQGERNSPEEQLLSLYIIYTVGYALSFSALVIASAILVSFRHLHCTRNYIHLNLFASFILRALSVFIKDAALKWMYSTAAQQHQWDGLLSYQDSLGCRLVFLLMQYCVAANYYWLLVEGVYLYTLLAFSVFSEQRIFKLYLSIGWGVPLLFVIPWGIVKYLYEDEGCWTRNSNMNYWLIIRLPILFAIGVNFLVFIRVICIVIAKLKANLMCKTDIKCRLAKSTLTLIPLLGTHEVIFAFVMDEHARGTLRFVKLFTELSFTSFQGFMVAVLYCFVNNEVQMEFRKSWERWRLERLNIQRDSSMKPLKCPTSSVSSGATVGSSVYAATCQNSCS
Put plainly: INS1e assay, cAMP activity at GLP-1R.

The target of test [3] is T3, human glucose-dependent insulinotropic peptide receptor (GIPR) (Homo sapiens, UniProt P48546).
T3 construct: expressed in transfected cells; host or cells: HEK293 cells or CHO cells
T3 sequence (P48546 22-466): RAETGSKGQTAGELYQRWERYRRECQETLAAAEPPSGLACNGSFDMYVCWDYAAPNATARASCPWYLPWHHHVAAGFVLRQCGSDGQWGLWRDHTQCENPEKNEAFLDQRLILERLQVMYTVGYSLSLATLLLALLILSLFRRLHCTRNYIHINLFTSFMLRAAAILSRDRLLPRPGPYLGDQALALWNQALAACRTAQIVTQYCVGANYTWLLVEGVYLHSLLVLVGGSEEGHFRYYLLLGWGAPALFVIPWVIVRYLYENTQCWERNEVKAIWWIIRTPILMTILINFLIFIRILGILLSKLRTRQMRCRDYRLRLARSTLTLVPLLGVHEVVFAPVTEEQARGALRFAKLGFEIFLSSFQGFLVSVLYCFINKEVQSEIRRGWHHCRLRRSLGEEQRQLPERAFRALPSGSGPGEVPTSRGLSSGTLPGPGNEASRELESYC
Put plainly: cAMP assay, human GIPR cells. The gist of the method:
as §1
Background: Cyclic AMP is a second messenger, typically raised through Gs and lowered through Gi signalling.

The target of test [4] is T4, human glucagon receptor (GCGR) (Homo sapiens, UniProt P47871).
T4 construct: expressed in transfected cells; host or cells: HEK293 cells or CHO cells
Briefly: cAMP assay, human GCGR cells. The gist of the method:
as §1

Where [5] appears, read: Table 9, bis-lipidated peptides, mean of n1 and n2, read-out: Primary assay EC50 Mean pM GLP-1R.
Setting [6] is: Table 9, bis-lipidated peptides, replicate n1, read-out: Primary assay EC50 GLP-1R n1.
Setting [7] is: Table 9, bis-lipidated peptides, replicate n2, read-out: Primary assay EC50 GLP-1R n2.
Where [8] appears, read: Table 10, bis-lipidated peptides, mean of n1 and n2, read-out: INS1e assay EC50 Mean pM GLP-1R.
Setting [9] is: Table 10, bis-lipidated peptides, replicate n1, read-out: INS1e assay EC50 GLP-1R n1.
The mark [10] stands for this setting: Table 10, bis-lipidated peptides, replicate n2, read-out: INS1e assay EC50 GLP-1R n2.
[11] abbreviates: Table 9, bis-lipidated peptides, first replicate, read-out: Primary assay EC50 GIP-R (n1).
[12] abbreviates: Table 9, bis-lipidated peptides, second replicate, read-out: Primary assay EC50 GIP-R (n2).
Where [13] appears, read: Table 9, bis-lipidated peptides, first replicate, read-out: Primary assay EC50 Gluc-R (n1).
Setting [14] is: Table 9, bis-lipidated peptides, second replicate, read-out: Primary assay EC50 Gluc-R (n2).
Setting [15] is: cAMP activity, first determination (n1), read-out: Primary assay EC50 GLP-1R n1.
Setting [16] is: cAMP activity, mean of n1 and n2, read-out: Mean pM GLP-1R.
[17] abbreviates: cAMP activity, second determination (n2), read-out: Primary assay EC50 GLP-1R n2.
[18] abbreviates: Table 8, substituted and mono-lipidated peptides, mean of n1 and n2, read-out: INS1e assay EC50 Mean pM GLP-1R.
The mark [19] stands for this setting: Table 8, substituted and mono-lipidated peptides, replicate n1, read-out: INS1e assay EC50 GLP-1R n1.
Setting [20] is: Table 8, substituted and mono-lipidated peptides, replicate n2, read-out: INS1e assay EC50 GLP-1R n2.
Where [21] appears, read: cAMP activity, first determination (n1), read-out: Primary assay EC50 GIP-R.
The mark [22] stands for this setting: cAMP activity, second determination (n2), read-out: Primary assay EC50 GIP-R.
Setting [23] is: cAMP activity, second determination (n2), read-out: Primary assay EC50 Gluc-R.

T1 sequence (P43220 24-463): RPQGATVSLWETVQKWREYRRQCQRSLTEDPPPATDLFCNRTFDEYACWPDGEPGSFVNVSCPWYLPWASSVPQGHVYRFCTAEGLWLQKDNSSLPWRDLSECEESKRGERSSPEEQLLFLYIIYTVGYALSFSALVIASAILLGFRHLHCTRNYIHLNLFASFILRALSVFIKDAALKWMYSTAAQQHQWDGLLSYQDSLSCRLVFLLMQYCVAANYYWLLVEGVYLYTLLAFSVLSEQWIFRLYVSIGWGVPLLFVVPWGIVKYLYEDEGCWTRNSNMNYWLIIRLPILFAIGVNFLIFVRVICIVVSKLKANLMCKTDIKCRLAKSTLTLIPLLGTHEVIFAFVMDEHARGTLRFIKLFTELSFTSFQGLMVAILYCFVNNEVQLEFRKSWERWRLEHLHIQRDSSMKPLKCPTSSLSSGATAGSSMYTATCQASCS
T4 sequence (P47871 26-477): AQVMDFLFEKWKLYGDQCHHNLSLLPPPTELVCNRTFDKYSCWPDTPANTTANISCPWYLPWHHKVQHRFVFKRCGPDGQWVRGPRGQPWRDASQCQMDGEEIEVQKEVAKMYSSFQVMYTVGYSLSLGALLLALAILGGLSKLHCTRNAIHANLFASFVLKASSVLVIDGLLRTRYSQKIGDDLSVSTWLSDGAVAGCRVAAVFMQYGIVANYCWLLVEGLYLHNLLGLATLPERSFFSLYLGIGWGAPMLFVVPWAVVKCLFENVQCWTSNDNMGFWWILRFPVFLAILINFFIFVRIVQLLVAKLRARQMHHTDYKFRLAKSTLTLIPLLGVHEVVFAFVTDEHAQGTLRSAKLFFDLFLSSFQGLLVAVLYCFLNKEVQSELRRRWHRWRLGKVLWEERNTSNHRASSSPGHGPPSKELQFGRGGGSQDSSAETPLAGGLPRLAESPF

Regarding `CCCCCCCCCCCC(=O)N[C@@H](CCC(=O)NCCOCCOCC(=O)NCCOCCOCC(=O)NCCCC[C@H](NC(=O)[C@H](Cc1ccc(O)cc1)NC(=O)[C@H](CO)NC(=O)[C@](C)(CO)NC(=O)[C@@H](NC(=O)[C@H](CC(=O)O)NC(=O)[C@H](CO)NC(=O)[C@@H](NC(=O)[C@](C)(Cc1ccccc1)NC(=O)[C@H](CO)NC(=O)CNC(=O)[C@H](CCC(=O)O)NC(=O)C(C)(C)NC(=O)[C@@H](N)Cc1c[nH]cn1)[C@@H](C)O)C(C)C)C(=O)N[C@@H](CCC(=O)O)C(=O)NCC(=O)N[C@@H](CCC(=O)O)C(=O)N[C@@H](C)C(=O)N[C@@H](C)C(=O)N[C@@](C)(CCCCN)C(=O)N[C@@H](CCC(=O)O)C(=O)N[C@@H](Cc1ccccc1)C(=O)N[C@H](C(=O)N[C@@H](CCCCNC(=O)COCCOCCNC(=O)COCCOCCNC(=O)CC[C@H](NC(=O)CCCCCCCCCCC)C(=O)O)C(=O)N[C@@H](Cc1c[nH]c2ccccc12)C(=O)N[C@H](C(=O)N[C@H](C(=O)N[C@@H](CCC(=O)O)C(=O)NCC(=O)NCC(N)=O)C(C)C)C(C)C)[C@@H](C)CC)C(=O)O` [compound 268] (H-H[Aib]EGS[αMeF]TSDV[αMeS]SYK([AEEA-AEEA-γGlu-Lauroyl])EGEAA[αMeK]EFIK([AEEA-AEEA-γGlu-Lauroyl])WVVEGG-NH2; N-terminus assumed), the EC50 stood at 4.8 pM in test [1] (setting [5]); 4.46 pM in test [1] (setting [6]); 5.05 pM in test [1] (setting [7]); 1160 pM in test [2] (setting [8]); 1090 pM in test [2] (setting [9]); 1230 pM in test [2] (setting [10]). The EC50 in test [3] (setting [11]), in test [3] (setting [12]), in test [4] (setting [13]) and in test [4] (setting [14]) was at least 22.2 nM each time.

As for `CC[C@H](C)[C@H](NC(=O)[C@](C)(Cc1ccccc1)NC(=O)[C@H](CCC(=O)O)NC(=O)[C@H](CCCCNC(=O)COCCOCCNC(=O)COCCOCCNC(=O)CC[C@H](NC(=O)CCCCCCCCCCCCCCCCC(=O)O)C(=O)O)NC(=O)[C@H](C)NC(=O)[C@H](C)NC(=O)[C@H](CCC(=O)O)NC(=O)CNC(=O)[C@H](CCC(=O)O)NC(=O)[C@H](CC(C)C)NC(=O)[C@](C)(Cc1ccccc1)NC(=O)[C@H](CO)NC(=O)[C@](C)(CO)NC(=O)[C@@H](NC(=O)[C@H](CC(=O)O)NC(=O)[C@H](CO)NC(=O)[C@@H](NC(=O)[C@](C)(Cc1ccccc1)NC(=O)[C@H](CO)NC(=O)CNC(=O)[C@H](CCC(=O)O)NC(=O)C(C)(C)NC(=O)[C@@H](N)Cc1c[nH]cn1)[C@@H](C)O)C(C)C)C(=O)N[C@@H](C)C(=O)N[C@@H](Cc1c[nH]c2ccccc12)C(=O)N[C@H](C(=O)N[C@H](C(=O)N[C@@](C)(CCCCN)C(=O)NCC(=O)NCC(N)=O)C(C)C)C(C)C` [compound 49] (H-H[Aib]EGS[αMeF]TSDV[αMeS]S[αMeF]LEGEAAK([AEEA-AEEA-γGlu-C18 diacid])E[αMeF]IAWVV[αMeK]GG-NH2; N-terminus assumed), the EC50 worked out at 96 pM in test [1] (setting [15]); 124 pM in test [1] (setting [16]); 150 pM in test [1] (setting [17]); 10000 pM in test [2] (setting [18]); 9350 pM in test [2] (setting [19]); 10700 pM in test [2] (setting [20]). The EC50 in test [3] (setting [21]), in test [3] (setting [22]) and in test [4] (setting [23]) was at least 25 nM in each case.

As to `CCCCCCCCCCCC(=O)N[C@@H](CCC(=O)NCCOCCOCC(=O)NCCOCCOCC(=O)NCCCC[C@H](NC(=O)[C@H](CO)NC(=O)[C@](C)(CO)NC(=O)[C@@H](NC(=O)[C@H](CC(=O)O)NC(=O)[C@H](CO)NC(=O)[C@@H](NC(=O)[C@](C)(Cc1ccccc1)NC(=O)[C@H](CO)NC(=O)CNC(=O)[C@H](CCC(=O)O)NC(=O)C(C)(C)NC(=O)[C@@H](N)Cc1c[nH]cn1)[C@@H](C)O)C(C)C)C(=O)N[C@@H](CC(C)C)C(=O)N[C@@H](CCC(=O)O)C(=O)NCC(=O)N[C@@H](CCC(=O)O)C(=O)N[C@@H](C)C(=O)N[C@@H](C)C(=O)N[C@@](C)(CCCCN)C(=O)N[C@@H](CCC(=O)O)C(=O)N[C@@H](Cc1ccccc1)C(=O)N[C@H](C(=O)N[C@@H](C)C(=O)N[C@@H](Cc1c[nH]c2ccccc12)C(=O)N[C@@H](CCCCNC(=O)COCCOCCNC(=O)COCCOCCNC(=O)CC[C@H](NC(=O)CCCCCCCCCCC)C(=O)O)C(=O)N[C@H](C(=O)N[C@@H](CCC(=O)O)C(=O)NCC(=O)NCC(N)=O)C(C)C)[C@@H](C)CC)C(=O)O` [compound 264] (H-H[Aib]EGS[αMeF]TSDV[αMeS]SK([AEEA-AEEA-γGlu-Lauroyl])LEGEAA[αMeK]EFIAWK([AEEA-AEEA-γGlu-Lauroyl])VEGG-NH2; N-terminus assumed), the EC50 in test [1] (setting [5]) is 12.8 pM; in test [1] (setting [6]), 18.2 pM; in test [1] (setting [7]), 7.37 pM; in test [2] (setting [8]), 1030 pM; in test [2] (setting [9]), 963 pM; in test [2] (setting [10]) it was 1100 pM. The EC50 in test [3] (setting [11]), in test [3] (setting [12]), in test [4] (setting [13]) and in test [4] (setting [14]) was at least 22.6 nM in each case.

Regarding `CC[C@H](C)[C@H](NC(=O)[C@](C)(Cc1ccccc1)NC(=O)[C@H](CCC(=O)O)NC(=O)[C@](C)(CCCCN)NC(=O)[C@H](C)NC(=O)[C@H](C)NC(=O)[C@H](CCC(=O)O)NC(=O)CNC(=O)[C@H](CCC(=O)O)NC(=O)[C@H](CC(C)C)NC(=O)[C@](C)(Cc1ccccc1)NC(=O)[C@H](CO)NC(=O)[C@](C)(CO)NC(=O)[C@@H](NC(=O)[C@H](CC(=O)O)NC(=O)[C@H](CO)NC(=O)[C@@H](NC(=O)[C@](C)(Cc1ccccc1)NC(=O)[C@H](CO)NC(=O)CNC(=O)[C@H](CCC(=O)O)NC(=O)C(C)(C)NC(=O)[C@@H](N)Cc1c[nH]cn1)[C@@H](C)O)C(C)C)C(=O)N[C@@H](CCCCNC(=O)COCCOCCNC(=O)COCCOCCNC(=O)CC[C@H](NC(=O)CCCCCCCCCCCCCCCCC(=O)O)C(=O)O)C(=O)N[C@@](C)(Cc1ccccc1)C(=O)N[C@H](C(=O)N[C@H](C(=O)N[C@@](C)(CCCCN)C(=O)NCC(=O)NCC(N)=O)C(C)C)C(C)C` [compound 105] (H-H[Aib]EGS[αMeF]TSDV[αMeS]S[αMeF]LEGEAA[αMeK]E[αMeF]IK([AEEA-AEEA-γGlu-C18 diacid])[αMeF]VV[αMeK]GG-NH2; N-terminus assumed), the EC50 in test [1] (setting [15]) is 21 pM; in test [1] (setting [16]) it was 18 pM; in test [1] (setting [17]), 14.8 pM; in test [2] (setting [18]), 970 pM; in test [2] (setting [19]) it was 220 pM; in test [2] (setting [20]), 1720 pM. Moreover, the EC50 in test [3] (setting [21]), in test [3] (setting [22]) and in test [4] (setting [23]) was at least 25 nM each time.
